# US5674730A, “Eukaryotic cells comprising a DNA sequence encoding a bacterial-viral chimeric transactivator protein” (priority 1993, dated 1997)
# Legend:
# Format in all cases: cell-based
# [1] = system: LAP348 lac activator protein: E. coli lacI 5'N1 (SV40 nuclear localization signal) with HSV VP16 amino acids 369-488 inserted after lacI amino acid 348; experiment: Transient cotransfection CAT assay with or without IPTG in the growth medium (FIG. 6); settings: 10 mM IPTG in growth medium; HeLa cells cotransfected with pL1-2CAT and pHCMVLAP348
# Experimental: FIG. 6 Inhibition of LAP activity by IPTG. HeLa cells were plated out two days before transfection in normal media or media containing 10 mM IPTG. Transfections contained 2 μg of either pSV2CAT or pL1-2CAT alone or with 1 μg of pHCMVLAP348. Cells transfected in IPTG were fed with media containing 10 mM IPTG 16 hours after transfection. CAT assays were preformed as described in the text. The relative activities (RA) of each extract normalized to that produced by pSV2CAT are shown below the figure.
# (§1) Cells were transfected by the calcium phosphate precipitation method as previously described (Wigler et al., 1979, Proc. Natl. Acad. Sci. USA 76:1373-1376). For transient expression assays, 50-70% confluent […] of cells were incubated overnight after addition to the media of a 1 ml precipitate containing 2 μg of reporter and 1 μg of effector plasmids and carrier DNA (high molecular weight calf thymus DNA) for a total of 25 μg of DNA. The media and precipitate were removed and replaced with fresh media the next morning.
# (§2) Cells were harvested 44-48 hours after transfection and CAT assays performed essentially as described (Gorman et al., 1982, Mol. Cell Biol. 2:1044-1051). Equal amounts (30-200 μg) of protein were used in each experiment. CAT activity was quantitated by thin layer chromatography and liquid scintillation counting of spots. […]
# [2] = system: LAP267 temperature-sensitive lac activator protein: E. coli lacI 5'N1 with HSV VP16 segment inserted after lacI amino acid 267; experiment: CAT expression from pL14CAT as a function of IPTG concentration at 39.5° C. (FIG. 9); settings: 39.5° C. (non-permissive temperature); HeLa cells cotransfected with LAP267 and pL14CAT
# Experimental: FIG. 9 Reverse-regulatory effect of IPTG on transactivator activity of LAP267 at 39.5° C.
# LAP267 was constructed as described for LAP348 in Section 6.1.1., supra, except that the VP16 segment was inserted at an EcoRV site after amino acid 267 in the lacI coding region (FIG. 1A).
# HeLa cells were cotransfected with plasmids encoding the LAP267 or LAP348 activator protein and pL14CAT, encoding CAT reporter gene. […] This property enables the expression of genes controlled by LAP267 to be induced at 39.5° C. by addition of IPTG to the culture medium.
# [3] = system: LAP348 lac activator protein: E. coli lacI 5'N1 with HSV VP16 amino acids 369-488 inserted after lacI amino acid 348, stably expressed; experiment: CAT assay in cell line stably expressing LAP348, with or without IPTG (FIG. 8); settings: IPTG (10 mM per FIG. 8 legend) added to medium two days before transfection; LAPneo2b cells
# Experimental: FIG. 8 Inhibition of LAP348 activity of L3 cells by IPTG. Either LTK or L3, or L3 cells grown in the presence of 10 mM IPTG (L3+i) for 48 hours before transfection, were transfected with either pSV2cat or pL1-2cat as indicated. The relative activity of the extracts normalized to that produced by SV2cat in Ltk- cells are shown below.
# as §1
# as §2, with “spots. Extracts that converted greater than 80% of the chloramphenicol in an assay were diluted appropriately to ensure linearity of the assay.” for “spots.”
structure (smiles),measurement,setting,value
"CC(C)S[C@@H]1O[C@H](CO)[C@H](O)[C@H](O)[C@H]1O [IPTG, isopropyl β-D-thiogalactoside]",reduction of the level of activation of pL1-2CAT by LAP348,[1],greater than 10 fold
same,effect of IPTG on transactivator activity of LAP267,[2],reverse regulator
same,reduction of expression of pL1-2CAT in LAP348-expressing cell line,[3],greater than 30 fold
